# From patent US20080255175A1, “Anti-cancer agents, compositions and methods of treating cancers” (priority 2007, published 2008)
# Tests used:
# MCF-7, Human Breast = assay: Cell proliferation 96-welled in vitro MTT assay, MCF-7; format: cell-based; conditions: MCF7, 72 hr incubation, triplicate
# Description: (§1) In vitro Efficacy: The Compounds were tested in a Cell Proliferation 96-welled in vitro MTT assay
# (§2) The tests were done in triplicate and the test samples included negative control, positive control and ACB compounds at several concentrations (10^−4 to 10^−8) in 0.4% DMSO/DW medium. The incubation time was 72 hr and the IC50 was calculated from the generated inhibition curves.
# HT-29, Human Colorectal = assay: Cell proliferation 96-welled in vitro MTT assay, HT-29; format: cell-based; conditions: 72 hr incubation, triplicate
# Description: as §1, §2
# Lewis Lung, mouse lung = assay: Cell proliferation 96-welled in vitro MTT assay, Lewis Lung; format: cell-based; conditions: Lewis lung carcinoma, 72 hr incubation, triplicate
# Description: as §1, §2
# [1] = Body weight of nude mice in the NCI-H460 xenograft study; format: in vivo, BALB/c nude mice; conditions: after four weeks, twice every week, model 22.07 ± 1.68
# Source text: (§3) BALB/c nude mice, were provided by Shanghai SLAC Experimental Animal Co., Ltd. (Experimental animal production license:SCXK (Shanghai) 2003-0003; Experimental animal application license:SYXK (Jiangsu) 2002-0053). The ages of the mice was 35-40 days; their body weight was 18-22 g; half of the mice were female and the other half were male. Eight nude mice were used per group.
# (§4) The tumor growing in Log phase was isolated from nude mice and sliced into 1.5 mm^3 particles. Under SPF conditions, the tumor particles were inoculated s.c. of nude mice right axilla. The xenografted tumor was measured the length and width by vernier caliper. Nude mice were randomly divided into eight groups when the bearing tumor reached 100-300mm^3 volume. Tumor length and width were measured twice every week to dynamic evaluate the anticancer activity of the tested compounds. Compound 1 was given by i.p. twice every week, compound 2 was given by i.v. twice every week, compound 3 was given by i.v. twice every week, control Topotecan was given by i.v. twice every week. In model group saline was give i.v. twice every week. After four weeks drug administration, nude mice were sacrificed and tumor was isolated by surgery for weight detection.
# P388, Mouse Lymphoma = assay: Cell proliferation 96-welled in vitro MTT assay, P388; format: cell-based; conditions: 72 hr incubation, triplicate
# Description: as §1, §2
# [2] = system: NCI-H460 human non-small cell lung cancer; assay: NCI-H460 human non-small cell lung cancer nude mice xenograft model; format: in vivo, BALB/c nude mice; conditions: for Tumor Weight / Tumor Inhibitory Growth Weight: after four weeks; for Tumor Weight: twice every week, model 3.08 ± 0.88; for effect on nude mice xenograft NCI-H460 human non-small cell lung cancer growth (in words): mouse, in vivo; for dose dependence of anticancer effect (in words): two dosages per compound
# Source text: In this study the NCI-H460 human non-small cell lung cancer nude mice xenograft model was established and applied for in vivo anti-cancer activity evaluation of three compounds of the invention.
# as §3
# NCI-H460 human non-small cell lung cancer nude mice xenograft model was established by s.c. injection of 1×10^6 NCI-H460 cells into nude mice axilla. After formation of tumor the xenograft was passaged for three generations in nude mice.
# as §4
# Tumor volume (TV) was calculated by the following formula: TV=1/2×a×b2 a and b represent length and width, respectively.
# [3] = Dosage 1: topotecan 2 i.v., Compound 1 0.625 i.p., Compound 2 5 i.v., Compound 3 1.5625 i.v. (mg/kg)
# [4] = Dosage 2: Compound 1 0.3125 i.p., Compound 2 2.5 i.v., Compound 3 0.78125 i.v. (mg/kg)
# [5] = 0.5 week, Dosage 1: topotecan 2, Compound 1 0.625, Compound 2 5, Compound 3 1.5625 mg/kg, X ± SD, n = 8
# [6] = 0.5 week, Dosage 2: Compound 1 0.3125, Compound 2 2.5, Compound 3 0.78125 mg/kg, X ± SD, n = 8
# [7] = 1 week, Dosage 1: topotecan 2, Compound 1 0.625, Compound 2 5, Compound 3 1.5625 mg/kg
# [8] = 1 week, Dosage 2: Compound 1 0.3125, Compound 2 2.5, Compound 3 0.78125 mg/kg
# [9] = 1.5 weeks, Dosage 1: topotecan 2, Compound 1 0.625, Compound 2 5, Compound 3 1.5625 mg/kg
# [10] = 1.5 weeks, Dosage 2: Compound 1 0.3125, Compound 2 2.5, Compound 3 0.78125 mg/kg
# [11] = 2 weeks, Dosage 1: topotecan 2, Compound 1 0.625, Compound 2 5, Compound 3 1.5625 mg/kg
# [12] = 2 weeks, Dosage 2: Compound 1 0.3125, Compound 2 2.5, Compound 3 0.78125 mg/kg
# [13] = 2.5 weeks, Dosage 1: topotecan 2, Compound 1 0.625, Compound 2 5, Compound 3 1.5625 mg/kg
# [14] = 2.5 weeks, Dosage 2: Compound 1 0.3125, Compound 2 2.5, Compound 3 0.78125 mg/kg
# [15] = 3 weeks, Dosage 1: topotecan 2, Compound 1 0.625, Compound 2 5, Compound 3 1.5625 mg/kg
# [16] = 3 weeks, Dosage 2: Compound 1 0.3125, Compound 2 2.5, Compound 3 0.78125 mg/kg
# [17] = 3.5 weeks, Dosage 1: topotecan 2, Compound 1 0.625, Compound 2 5, Compound 3 1.5625 mg/kg
# [18] = 3.5 weeks, Dosage 2: Compound 1 0.3125, Compound 2 2.5, Compound 3 0.78125 mg/kg
# [19] = 4 weeks, Dosage 1: topotecan 2, Compound 1 0.625, Compound 2 5, Compound 3 1.5625 mg/kg
# [20] = 4 weeks, Dosage 2: Compound 1 0.3125, Compound 2 2.5, Compound 3 0.78125 mg/kg
# [21] = higher dosage: compound 3 1.5625 mg/kg i.v., compound 2 5 mg/kg i.v., compound 1 0.625 mg/kg i.p., topotecan 2 mg/kg i.v.
# [22] = lower dosage: compound 3 0.78125 mg/kg i.v., compound 2 2.5 mg/kg i.v., compound 1 0.3125 mg/kg i.p.
Compound,"IC50 (MCF-7, Human Breast) [µM]","IC50 (HT-29, Human Colorectal) [µM]","IC50 (Lewis Lung, mouse lung) [µM]","Ending Body Weight [1, 3] [g]","Ending Body Weight [1, 4] [g]","IC50 (P388, Mouse Lymphoma) [µM]","Tumor Volume [2, 5] [mm3]","Tumor Volume [2, 6] [mm3]","Tumor Volume [2, 7] [mm3]","Tumor Volume [2, 8] [mm3]","Tumor Volume [2, 9] [mm3]","Tumor Volume [2, 10] [mm3]","Tumor Volume [2, 11] [mm3]","Tumor Volume [2, 13] [mm3]","Tumor Volume [2, 15] [mm3]","Tumor Volume [2, 17] [mm3]","Tumor Volume [2, 19] [mm3]","Tumor Weight [2, 3] [g]","Tumor Inhibitory Growth Weight [2, 3]","inhibitory rate [2, 21] [%]",also measured
CCC1(OC(=O)CNC(=O)/C=C\C(=O)O)C(=O)OCc2c1cc1n(c2=O)Cc2cc3ccccc3nc2-1 (stereo not shown) [Compound 1],20.4,44.3,6.34,18.86 ± 1.60,18.59 ± 1.46,10.9,220.9,194.9,504.2,560.8,706.7 ± 450.3,766.0 ± 480.3,1104.7 ± 759.6,1367.1 ± 880.2,1566.7 ± 867.8,1798.2 ± 767.2,2088.1,1.77 ± 0.73,42.5,42.5,"Tumor Volume [2, 12]: 1245.7 ± 585.6 mm3; Tumor Volume [2, 14]: 1459.9 ± 793.3 mm3; Tumor Volume [2, 16]: 1638.9 ± 827.1 mm3; Tumor Volume [2, 18]: 1909.7 ± 464.4 mm3; Tumor Volume [2, 20]: 2209.8 mm3; Tumor Weight [2, 4]: 1.85 ± 0.75 g; Tumor Inhibitory Growth Weight [2, 4]: 39.9; inhibitory rate [2, 22]: 39.9%; effect on nude mice xenograft NCI-H460 human non-small cell lung cancer growth (in words) [2]: could inhibit; dose dependence of anticancer effect (in words) [2]: dose-dependent anticancer effect"
CCCS(=O)(=O)Oc1ccc2nc3c(cc2c1CN(C)C)Cn1c-3cc2c(c1=O)COC(=O)C2(CC)OC(=O)CNC(=O)/C=C\C(=O)O (stereo not shown) [Compound 2],30.8,50.8,12.8,18.93 ± 1.49,17.82 ± 1.06,10.6,205.2,182.6,413.8,472.2,602.1 ± 339.3,706.8 ± 360.0,733.7 ± 497.0,950.0 ± 578.0,1147.2 ± 598.0,1632.9 ± 752.6,1639.4,1.55 ± 0.51,49.7,49.7,"Tumor Volume [2, 12]: 861.1 ± 523.9 mm3; Tumor Volume [2, 14]: 1084.9 ± 536.3 mm3; Tumor Volume [2, 16]: 1269.1 ± 644.1 mm3; Tumor Volume [2, 18]: 1841.8 ± 859.5 mm3; Tumor Volume [2, 20]: 2029.4 mm3; Tumor Weight [2, 4]: 1.75 ± 0.90 g; Tumor Inhibitory Growth Weight [2, 4]: 43.2; inhibitory rate [2, 22]: 43.2%; effect on nude mice xenograft NCI-H460 human non-small cell lung cancer growth (in words) [2]: could inhibit; dose dependence of anticancer effect (in words) [2]: dose-dependent anticancer effect"
CC[C@@]1(OC(=O)CNC(=O)/C=C\C(=O)O)C(=O)OCc2c1cc1n(c2=O)Cc2cc3c(CN(C)C)c(OS(=O)(=O)C(C)C)ccc3nc2-1 [Compound 3],9.79,14.3,0.929,19.63 ± 0.77,18.42 ± 1.04,0.0847,237.9,211.8,392.9,455.2,547.2 ± 390.0,624.6 ± 371.5,719.6 ± 315.8,958.4 ± 486.2,1093.2 ± 692.2,1400.4 ± 670.6,1588.3,1.36 ± 0.50,55.8,55.8,"Tumor Volume [2, 12]: 795.4 ± 389.0 mm3; Tumor Volume [2, 14]: 999.8 ± 562.9 mm3; Tumor Volume [2, 16]: 1291.5 ± 564.4 mm3; Tumor Volume [2, 18]: 1553.2 ± 706.3 mm3; Tumor Volume [2, 20]: 1908.5 mm3; Tumor Weight [2, 4]: 1.65 ± 0.86 g; Tumor Inhibitory Growth Weight [2, 4]: 46.4; inhibitory rate [2, 22]: 46.4%; effect on nude mice xenograft NCI-H460 human non-small cell lung cancer growth (in words) [2]: could inhibit; dose dependence of anticancer effect (in words) [2]: dose-dependent anticancer effect"
"CC[C@@]1(O)C(=O)OCc2c1cc1n(c2=O)Cc2cc3c(CN(C)C)c(O)ccc3nc2-1 [topotecan, Topotecan, reference compound]",22.2,22.9,11,17.32 ± 1.18,–,18.5,209.6,–,574.0,–,759.8 ± 419.9,–,933.1 ± 496.8,1220.7 ± 611.4,1273.3 ± 685.1,1413.0 ± 717.0,1639.9,1.58 ± 0.74,48.7,48.7,–
